16 compounds from US20230159538A1, “PYRROLIDINE-PYRAZOLES AS PYRUVATE KINASE ACTIVATORS” (Global Blood Therapeutics, Inc., priority 2020, published 2023) can be followed below.

The assay deals with T1, Human pyruvate kinase R (PKR) (Homo sapiens, UniProt P30613).
T1 construct: Human pyruvate kinase R (PKR), residues 14-574; 6x-His (N, cleaved yes); 8x-Arg (N, cleaved yes); SUMO (N, cleaved yes); host or cells: E. coli
Description: Biochemical assay for activation of pyruvate kinase R (Kinase-Glo luminescence, ATP generation). The note with it: for AC50: 0.1 nM PKR, 2 mM FBP, 0.3 mM ADP, 0.1 mM PEP; for PKR % activation: maximal activation level relative to the activation level achieved by AG-348 @ 10 μM. On the procedure: Proteins were translated as fusions with 6×-His, 8×-Arg, and SUMO at the N-terminus. […] All proteins were cloned, expressed in E. coli, and purified using similar protocols. Cells were grown at 30° C. in Luria-Bertani broth supplemented with 0.4% glucose to OD600=0.8 and induced with 0.4 mM IPTG at 16° C. for 18 hours. Cells were harvested by centrifugation, resuspended in 50 mM potassium phosphate pH 8.0, 500 mM NaCl, 25 mM imidazole pH 8.0, and 3 mM β-mercaptoethanol. Cells were lysed using a LM20 microfluidizer from Microfluidics (Westwood, Mass.). The crude lysate was immediately supplemented with 0.2 mM phenylmethylsulfonyl fluoride (PMSF) and centrifuged at 20,000 g for 20 minutes. The soluble fraction was subsequently incubated with 2 mL Ni-NTA (GE Healthcare) per 1,000 ODs for 1 hour at 4° C. Following incubation with the Ni-NTA resin, lysate was removed by pelleting resin at 2,500 g for 3 minutes and washed 3 times with 9 bed volumes of 50 mM potassium phosphate pH 8.0, 500 mM NaCl, 25 mM imidazole, and 3 mM β-mercaptoethanol. Following the batch wash Ni-NTA resin was loaded onto a gravity column and His-tagged protein was eluted with 6 bed volumes of 10 mM Tris/HCl pH 8.0, 200 mM NaCl, 500 mM imidazole, and 3 mM β-mercaptoethanol. Eluted protein was dialyzed overnight against 10 mM Tris/HCl pH 8.0, 200 mM NaCl, and 1 mM DTT and the 6×-His-8×-Arg-SUMO-tag was cleaved using a 20:1 molar ratio of protein:3C protease. The protein was purified by anion exchange chromatography on a HiTrapQ or MonoQ 10/100 GL column (GE Healthcare) via a linear NaCl gradient and twice by size exclusion chromatography using a Superdex S200 26/60 column (GE Healthcare) run in 10 mM Tris/HCl pH 8.0, 200 mM NaCl, 10 mM MgCl2, 1 mM DTT. Proteins were concentrated to ˜12 mg/mL for crystallization and flash frozen for storage.
Biochemical Assay for Activation of Pyruvate Kinase R
Activation of pyruvate kinase R (PKR) and pyruvate kinase M2 (PKM2) were measured using a luminescence based measurement of ATP generation and the Kinase-Glo luminescent kinase reagent kit.

Structures are written as SMILES. A value given as a limit tells only on which side of the number the result lay.

T1 sequence (P30613 14-574): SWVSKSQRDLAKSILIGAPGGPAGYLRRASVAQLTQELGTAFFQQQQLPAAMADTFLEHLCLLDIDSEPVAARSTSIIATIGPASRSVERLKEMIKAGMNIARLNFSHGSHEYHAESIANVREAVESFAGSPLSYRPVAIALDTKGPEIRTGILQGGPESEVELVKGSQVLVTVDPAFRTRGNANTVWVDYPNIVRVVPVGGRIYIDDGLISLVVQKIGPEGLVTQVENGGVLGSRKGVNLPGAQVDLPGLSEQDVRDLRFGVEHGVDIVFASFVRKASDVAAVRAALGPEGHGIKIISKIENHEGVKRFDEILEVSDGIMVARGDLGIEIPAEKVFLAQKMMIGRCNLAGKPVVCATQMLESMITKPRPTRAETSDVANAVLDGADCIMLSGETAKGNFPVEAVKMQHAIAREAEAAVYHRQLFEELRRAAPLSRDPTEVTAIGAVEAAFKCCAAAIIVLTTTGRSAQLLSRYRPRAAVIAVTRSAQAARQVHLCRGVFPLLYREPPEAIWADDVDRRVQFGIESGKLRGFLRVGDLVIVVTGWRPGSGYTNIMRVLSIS

For the compound `Cc1ncccc1[C@@H](N)C(=O)N1Cc2cn(S(=O)(=O)c3ccc4ncsc4c3)nc2C1` (single isomer, unassigned) [Compound 55, (2R)-2-amino-1-[2-(1,3-benzothiazole-6-sulfonyl)-2H,4H,5H,6H-pyrrolo[3,4-c]pyrazol-5-yl]-2-(2-methylpyridin-3-yl)ethan-1-one or (2S)-2-amino-1-[2-(1,3-benzothiazole-6-sulfonyl)-2H,4H,5H,6H-pyrrolo[3,4-c]pyrazol-5-yl]-2-(2-methylpyridin-3-yl)ethan-1-one], the AC50 is > 10000 nM and the PKR % activation came to 0%.

In turn, `O=C(N1Cc2cn(S(=O)(=O)c3ccc4ncsc4c3)nc2C1)[C@@]1(c2ccccc2)CCCN1` (single isomer, unassigned) [Compound 61, 6-({5-[(2S)-2-phenylpyrrolidine-2-carbonyl]-2H,4H,5H,6H-pyrrolo[3,4-c]pyrazol-2-yl}sulfonyl)-1,3-benzothiazole or 6-({5-[(2R)-2-phenylpyrrolidine-2-carbonyl]-2H,4H,5H,6H-pyrrolo[3,4-c]pyrazol-2-yl}sulfonyl)-1,3-benzothiazole] gave an AC50 of 452 nM and a PKR % activation of 48%.

`C[C@@H](O)[C@H](C(=O)N1Cc2cn(S(=O)(=O)c3ccc4cn[nH]c4c3)nc2C1)c1ccccc1` (single isomer, unassigned) [Compound 62]: the activity was half-maximal at 47 nM (AC50) and the PKR % activation came to 115%.

`C[C@@H](O)[C@@H](C(=O)N1Cc2cn(S(=O)(=O)c3ccc(OC(F)F)cc3)nc2C1)c1ccccc1Cl` (single isomer, unassigned) [Compound 66] gave an AC50 of 13 nM and a PKR % activation of 142%.

For the compound `C[C@@H](O)[C@@H](C(=O)N1Cc2cn(S(=O)(=O)c3ccc(OC(F)F)cc3)nc2C1)c1ccccc1Cl` (single isomer, unassigned) [Compound 68], the AC50 came to 10 nM and the PKR % activation was determined as 179%.

The compound `CC(O)C(C(=O)N1Cc2cn(S(=O)(=O)c3ccc4ncsc4c3)nc2C1)c1ccccc1Cl` (single isomer, unassigned) [Compound 69] gave an AC50 of 4.7 nM. In other words, the single-digit nanomolar range.

Turning to `C[C@@H](O)[C@@H](C(=O)N1Cc2cn(S(=O)(=O)c3cnc4c(c3)OCCO4)nc2C1)c1ccccc1Cl` (single isomer, unassigned) [Compound 70], the AC50 is 15 nM and the PKR % activation was 80%.

`O=C(C(CO)c1ccccc1Cl)N1Cc2cn(S(=O)(=O)c3cnc4c(c3)OCCO4)nc2C1` (single isomer, unassigned) [Compound 71, (2S,3R)-2-(2-chlorophenyl)-1-(2-[2H,3H[1,4]dioxino[2,3-b]pyridine-7-sulfonyl]-4H,6H-pyrrolo[3,4-c]pyrazol-5-yl)-3-hydroxybutan-1-one or (2R,3R)-2-(2-chlorophenyl)-1-(2-[2H,3H-[1,4]dioxino[2,3-b]pyridine-7-sulfonyl]-4H,6H-pyrrolo[3,4-c]pyrazol-5-yl)-3-hydroxybutan-1-one] came in with an AC50 of 8.9 nM.

On to `O=C([C@H](O)c1ncccc1F)N1Cc2cn(S(=O)(=O)c3ccc4ncsc4c3)nc2C1` (single isomer, unassigned) [Compound 74, (2R)-1-[2-(1,3-benzothiazole-6-sulfonyl)-2H,4H,5H,6H-pyrrolo[3,4-c]pyrazol-5-yl]-2-(3-fluoropyridin-2-yl)-2-hydroxyethan-1-one or (2S)-1-[2-(1,3-benzothiazole-6-sulfonyl)-2H,4H,5H,6H-pyrrolo[3,4-c]pyrazol-5-yl]-2-(3-fluoropyridin-2-yl)-2-hydroxyethan-1-one], for which the AC50 was 8.5 nM and the PKR % activation is 100%.

Take `COc1ccc(S(=O)(=O)n2cc3c(n2)CN(C(=O)[C@H](O)c2ncccc2F)C3)cc1` (single isomer, unassigned) [Compound 87, (2R)-2-(3-fluoropyridin-2-yl)-2-hydroxy-1-[2-(4-methoxybenzenesulfonyl)-2H,4H,5H,6H-pyrrolo[3,4-c]pyrazol-5-yl]ethan-1-one or (2R)-2-(3-fluoropyridin-2-yl)-2-hydroxy-1-[2-(4-methoxybenzenesulfonyl)-2H,4H,5H,6H-pyrrolo[3,4-c]pyrazol-5-yl]ethan-1-one]: the AC50 was 25 nM and the PKR % activation was determined as 156%.

As for `O=C([C@H](CO)c1ncccc1F)N1Cc2cn(S(=O)(=O)c3ccc(OC(F)F)cc3)nc2C1` (single isomer, unassigned) [Compound 89, (2S)-1-{2-[4-(difluoromethoxy)benzenesulfonyl]-2H,4H,5H,6H-pyrrolo [3,4-c]pyrazol-5-yl}-2-(3-fluoropyridin-2-yl)-3-hydroxypropan-1-one or (2R)-1-{2-[4-(difluoromethoxy)benzenesulfonyl]-2H,4H,5H,6H-pyrrolo[3,4-c]pyrazol-5-yl}-2-(3-fluoropyridin-2-yl)-3-hydroxypropan-1-one], the AC50 stood at 7.9 nM and the PKR % activation turned out to be 132%.

`O=C1CN([C@@H](C(=O)N2Cc3cn(S(=O)(=O)c4ccc(OC(F)F)cc4)nc3C2)c2ccccc2)C1` (single isomer, unassigned) [Compound 92, 1-[(1R)-2-{2-[4-(difluoromethoxy)benzenesulfonyl]-2H,4H,5H,6H-pyrrolo[3,4-c]pyrazol-5-yl}-2-oxo-1-phenylethyl]azetidin-3-one or 1-[(1S)-2-{2-[4-(difluoromethoxy)benzenesulfonyl]-2H,4H,5H,6H-pyrrolo[3,4-c]pyrazol-5-yl}-2-oxo-1-phenylethyl]azetidin-3-one]: half-maximal activity (AC50) was put at 800 nM and the PKR % activation came out at 120%.

As for `O=C1CN([C@@H](C(=O)N2Cc3cn(S(=O)(=O)c4ccc(OC(F)F)cc4)nc3C2)c2ccccc2)C1` (single isomer, unassigned) [Compound 93, 1-[(1R)-2-{2-[4-(difluoromethoxy)benzenesulfonyl]-2H,4H,5H,6H-pyrrolo[3,4-c]pyrazol-5-yl}-2-oxo-1-phenylethyl]azetidin-3-one or 1-[(1S)-2-{2-[4-(difluoromethoxy)benzenesulfonyl]-2H,4H,5H,6H-pyrrolo[3,4-c]pyrazol-5-yl}-2-oxo-1-phenylethyl]azetidin-3-one], the activity was half-maximal at 5550 nM (AC50) and the PKR % activation came to 84%.

`O=C([C@@H](c1ccccc1)N1CCC1=O)N1Cc2cn(S(=O)(=O)c3ccc(OC(F)F)cc3)nc2C1` (single isomer, unassigned) [Compound 99, 1-[(1R)-2-{2[4-(difluoromethoxy)benzenesulfonyl]-2H,4H,5H,6H-pyrrolo[3,4-c]pyrazol-5-yl}-2-oxo-1-phenylethyl]azetidin-2-one or 1-[(1S)-2-{2-[4-(difluoromethoxy)benzenesulfonyl]-2H,4H,5H,6H-pyrrolo[3,4-c]pyrazol-5-yl}-2-oxo-1-phenylethyl]azetidin-2-one] returned a half-maximal activity concentration (AC50) of 190 nM and a PKR % activation of 92%.

`O=C([C@@H](c1ccccc1)N1CCC1=O)N1Cc2cn(S(=O)(=O)c3ccc(OC(F)F)cc3)nc2C1` (single isomer, unassigned) [Compound 100, 1-[(1R)-2-{2-[4-(difluoromethoxy)benzenesulfonyl]-2H,4H,5H,6H-pyrrolo[3,4-c]pyrazol-5-yl}-2-oxo-1-phenylethyl]azetidin-2-one or 1-[(1S)-2-{2-[4-(difluoromethoxy)benzenesulfonyl]-2H,4H,5H,6H-pyrrolo[3,4-c]pyrazol-5-yl}-2-oxo-1-phenylethyl]azetidin-2-one]: the concentration at half-maximal activity (AC50) was > 10000 nM and the PKR % activation is on record as 0%.

Turning to `O=C([C@H](CO)c1ncccc1F)N1Cc2cn(S(=O)(=O)c3ccc4ncccc4c3)nc2C1` (single isomer, unassigned) [Compound 102, (2S)-2-(3-fluoropyridin-2-yl)-3-hydroxy-1-[2-(quinoline-6-sulfonyl)-2H,4H,5H,6H-pyrrolo[3,4-c]pyrazol-5-yl]propan-1-one or (2R)-2-(3-fluoropyridin-2-yl)-3-hydroxy-1-[2-(quinoline-6-sulfonyl)-2H,4H,5H,6H-pyrrolo[3,4-c]pyrazol-5-yl]propan-1-one], the half-maximal activity concentration (AC50) came out at 12 nM and the PKR % activation is on record as 81%.

For orientation: AC50 means the midpoint of the concentration-response curve, whichever way the signal moves. Read a low AC50 as activity at low concentration.
